Molecules are shown by their SMILES.

Assay [1] deals with E. coli BL21 (DE3) cells expressing FLIPK. The assay can be described thus: In vivo FRET measurement in FLIPK-expressing bacterial cell suspension. Type of assay: cell-based. The settings on record: for change in FRET ratio of bacterial cell suspension (in vivo specificity): incubation with amino acids for 45 min. The protocol:
In vivo analysis was performed by following the earlier protocols. […] Cultures were incubated in Luria Bertoni broth in baffled Erlenmeyer flasks for 48 h in the dark at 20 °C temperature in shaker incubator and then stored at 4 °C for overnight to ensure the proper folding of the fluorescent proteins. Then starved of nitrogen in M9 medium at 37 °C for 2 h and adjusted to OD600 3.5 and kept in 20 mM PBS buffer solution at pH 7.5. Then 180 µl of cells were dispended in the wells of microplate. 20 μl of 10 mM lysine in nitrogen starved medium grown cells were added and the fluorophores emissions were recorded for 45 min. For monitoring the accumulation rates, the injection module of microplate reader was used. Similar procedure was followed with other amino acids (arginine, ornithine, histidine) to see the specificity of FLIPK.

In assay [2] the target is T1, FLIPK sensor protein (CFP-LAO-YFP) (Salmonella typhimurium, UniProt P02911).
T1 construct: The first 22 amino acids (signal peptides) were removed by the help of a SignalP 4.1 server; (His)6 tag (from pRSET-B) (N); made in house; host or cells: E. coli BL21 (DE3), pRSET-B vector
The assay can be described thus: In vitro ligand specificity of FLIPK (FRET ratio with amino acids). The format is binding, Salmonella enterica serovar typhimurium LT2. The settings on record: amino acids at 1 and 10 mM, purified FLIPK. The protocol: (§1) Specificity of the sensor protein was measured by using five amino acids, arginine, leucine, lysine, ornithine and histidine at three different concentrations i.e. 0, 1.0 and 10 mM, each. FRET measurement was carried out by using a microplate reader. The excitation filter/slit used was 430 nm/20 nm and emission filters/slits for CFP and YFP were 485 nm/20 nm and 535 nm/25 nm, respectively. 180 µl of diluted sensor protein and 20 µl of substrate were taken in different well. Affinity of sensor protein was monitored by using different concentrations of lysine. All analysis was performed in 20 mM PBS buffer (pH 7.5).

The target of the next assay is T2, FLIPK-14 µ (Salmonella enterica, UniProt P02911, F74A).
T2 construct: gene argT; LAO without first 22 residues (signal peptide), CFP at N-terminus and YFP at C-terminus, N-terminal (His)6 tag, pRSET-B
T2 sequence (P02911 23-260 F74A): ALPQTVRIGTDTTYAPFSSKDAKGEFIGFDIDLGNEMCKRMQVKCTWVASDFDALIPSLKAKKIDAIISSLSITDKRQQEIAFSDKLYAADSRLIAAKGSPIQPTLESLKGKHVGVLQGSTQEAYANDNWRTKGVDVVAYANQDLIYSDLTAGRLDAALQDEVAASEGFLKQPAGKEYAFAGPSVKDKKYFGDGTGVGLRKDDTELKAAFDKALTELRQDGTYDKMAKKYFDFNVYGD
The assay can be described thus: In vitro FRET titration of purified CFP-LAO-YFP sensor with lysine in 20 mM PBS buffer pH 7.5, YFP/CFP (535/485 nm) emission ratio in a microplate reader, fitted to a simple binding isotherm. The settings on record: n = 3. The protocol:
as §1
(§2) To determine the Kd of the FLIPK sensors, sensor protein was mixed with different concentrations of lysine in 20 mM PBS buffer (pH 7.5) and YFP/CFP ratio was recorded. By using the ratio change on ligand binding, binding constants (Kd) were determined by fitting ligand titration curve in a simple binding isotherm: S=(r-rapo)/(rsat-rapo)=L/Kd+L , where S is saturation; [L] is ligand concentration; r is ratio; rapo is ratio in the absence of ligand and rsat is ratio at saturation with ligand. All analyses were carried out with three independent protein preparations. FRET was used to characterize the sensor protein with various parameters. The FRET ratio was determined as fluorescence intensity at 535 nm (YFP) divided by fluorescence intensity at 485 nm (CFP).

The target of a further assay is T3, FLIPK-306µ (Salmonella enterica, UniProt P02911, R99L).
T3 construct: gene argT; LAO without first 22 residues (signal peptide), CFP at N-terminus and YFP at C-terminus, N-terminal (His)6 tag, pRSET-B
T3 sequence (P02911 23-260 R99L): T2 sequence (P02911 23-260 F74A)
The description is as above. To be noted: n = 3. The protocol:
as §1, §2

The target of the next assay is T4, FLIPK-30µ (Salmonella enterica, UniProt P02911, S94A).
T4 construct: gene argT; LAO without first 22 residues (signal peptide), CFP at N-terminus and YFP at C-terminus, N-terminal (His)6 tag, pRSET-B
T4 sequence (P02911 23-260 S94A): T2 sequence (P02911 23-260 F74A)
The assay is described as above. To be noted: n = 3. How it is done: as §1, §2

A further assay deals with T5, FLIPK-142µ (Salmonella enterica, UniProt P02911, Y36A).
T5 construct: gene argT; LAO without first 22 residues (signal peptide), CFP at N-terminus and YFP at C-terminus, N-terminal (His)6 tag, pRSET-B
T5 sequence (P02911 23-260 Y36A): T2 sequence (P02911 23-260 F74A)
The description is as above. The settings on record: n = 3. How it is done:
as §1, §2

A further assay addresses T6, FLIPK-2 m (Salmonella enterica, UniProt P02911, D183I).
T6 construct: gene argT; LAO without first 22 residues (signal peptide), CFP at N-terminus and YFP at C-terminus, N-terminal (His)6 tag, pRSET-B
T6 sequence (P02911 23-260 D183I): T2 sequence (P02911 23-260 F74A)
Described as above. The settings on record: n = 3. How it is done: as §1, §2

In a further assay the target is T7, FLIPK-97µ (FLIPK, WT) (Salmonella enterica, UniProt P02911).
T7 construct: gene argT; LAO without first 22 residues (signal peptide), CFP at N-terminus and YFP at C-terminus, N-terminal (His)6 tag, pRSET-B
The assay is described as above. To be noted: n = 3. The protocol:
as §1, §2

In assay [3] the target is lysine binding periplasmic protein (LAO). More on the design: method as in PMID 1400387. The settings on record: read-out: Kd for lysine by equilibrium dialysis; cited from earlier work.
The subject of assay [4] is S. cerevisiae/URA3 strain BY4742 expressing FLIPK. Put plainly: Confocal FRET imaging of lysine uptake in FLIPK-expressing yeast cells. Type of assay: cell-based. How it is done:
For expression of FLIPK, S. cerevisiae/URA3 strain BY4742 was used as the eukaryotic host system. The yeast cells were grown and transformed by pYES-DEST-CFP-LAO-YFP vector in which the expression of CFP-LAO-YFP gene was controlled by GAL1 promoter. The transformed yeast cells were grown for 3–5 days in Synthetic Defined (SD)-growth and 1 % galactose as inducer. Imaging of expressed yeast cells were performed on confocal microscope (Leica DMRE) equipped with a confocal head TCS-SPE (Leica, Wetzlar, Germany). The yeast cells were fixed on glass slides by using medical adhesive rinsed with the growth medium and covered by a cover slip. To measure the lysine in yeast cells, dual emission intensity ratio was recorded by using LAS-AF software (Leica, Wetzlar, Germany) with 436 nm/20 nm excitation, two emission filters i.e. 480 nm/40 nm for CFP and 535/30 nm for YFP. For recording the data, FRET sensitized emission tool without background subtraction of the Leica confocal software. The data was further processed by using Adobe Photoshop. Images of single cell and multiple cells were captured by selecting the region of interest (ROI). Similar procedure was followed for the imaging of expressed bacterial cells.

Regarding `N=C(N)NCCC[C@H](N)C(=O)O` [arginine], the “change in FRET ratio of bacterial cell suspension (in vivo specificity)” value (“change in FRET ratio … (in vivo specificity)” for short) in assay [1] is on record as “did not change the FRET ratio”. Also, in assay [2], the “change in FRET ratio of FLIPK (ligand specificity)” value (shortened to “change in FRET ratio of FLIPK”) is “non-significant change in FRET ratio”.
In the case of `N[C@@H](Cc1c[nH]cn1)C(=O)O` [histidine], the “change in FRET ratio … (in vivo specificity)” value in [1] is “did not change the FRET ratio”. For the same compound, the “change in FRET ratio of FLIPK” value in assay [2] is “non-significant change in FRET ratio”.
On to `CC(C)C[C@H](N)C(=O)O` [leucine], for which, in [2], the “change in FRET ratio of FLIPK” value is given as “non-significant change in FRET ratio”.
Consider `NCCCC[C@H](N)C(=O)O` [lysine, L-lysine], for which the Kd on FLIPK-14 µ amounted to 14 µM; on FLIPK-306µ, 306 µM; at FLIPK-30µ, 30 µM; on FLIPK-142µ, 142 µM; on FLIPK-2 m it was 2000 µM; on FLIPK-97µ (FLIPK, WT), 97 µM.
Take `NCCCC[C@H](N)C(=O)O` [lysine]: in assay [3], the Kd is 0.015 µM. In addition, the “time after which FRET ratio increased distinctly” value in assay [1] (10 mM lysine added externally) was 5 min. Moreover, the “time at which FRET ratio of the cell suspensions saturated” value in [1] (10 mM lysine added externally, 20 mM PBS buffer) is listed as 45 min. Also, the “time within which uptake of lysine saturated” value in [1] (at 10 mM) was 40 to 45 min. Besides, the “change in FRET ratio … (in vivo specificity)” value in assay [1] is given as “major change”. In addition, the “increase of 535 nm/485 nm emission intensity ratio” value in assay [4] (100 mM extracellular lysine, single yeast cell) is recorded as 2.0. In addition, the “time up to which 535 nm/485 nm ratio increased before saturation” value in assay [4] (after addition of lysine) is given as 255 s. Besides, the “change in FRET ratio of FLIPK” value in assay [2] was “significant increase in the FRET ratio”.
In the case of `NCCC[C@H](N)C(=O)O` [ornithine], in assay [1], the “change in FRET ratio … (in vivo specificity)” value is given as “did not change the FRET ratio”. Moreover, in assay [2], the “change in FRET ratio of FLIPK” value is recorded as “non-significant change in FRET ratio”.
